Experimental data: patent publication US10570117B2, “Phenylimidazole compound” (Otsuka Pharmaceutical Factory, Inc., priority 2015, dated 2020)
Values after ≈ are worked out from the molar mass of the structure shown. Where two headings read alike, the source gives them in different places.

Assays:
[1] = Solubility in gastric juice or intestinal juice model fluid (precipitation method using DMSO); type: physicochemical; details: room temperature
Experimental: Solubility in Gastric Juice or Intestinal Juice Model Fluid
Measurement was performed by a precipitation method using DMSO. Specifically, each of the dimethyl sulfoxide (DMSO) solutions of the compounds was individually added to 1st fluid for Disintegration Test of Japanese Pharmacopoeia (pH: 1.2) or 2nd fluid for Disintegration Test of Japanese Pharmacopoeia (pH: 6.8), and the mixtures were stirred by shaking at room temperature for 24 hours. Subsequently, insoluble substances in each mixture were removed by filtration, and the UV absorption of each filtrate was measured. The obtained values were individually applied to the calibration curves of the compounds prepared in advance to calculate the concentrations of the compounds dissolved (μg/mL).

[2] = pH 1.2, simulated gastric fluid, kinetic from dmso stock, 1st fluid for Disintegration Test of Japanese Pharmacopoeia (pH: 1.2), read-out: Solubility (μg/mL) 1st fluid
[3] = pH 6.8, kinetic from dmso stock, 2nd fluid for Disintegration Test of Japanese Pharmacopoeia (pH: 6.8), read-out: Solubility (μg/mL) 2nd fluid
[4] = 2nd fluid for Disintegration Test of Japanese Pharmacopoeia (pH: 6.8), 24 hours

| Structure (SMILES) | solubility at 24 h [1, 2] [µg/mL] | solubility at 24 h [1, 3] [µg/mL] | melting point | other results |
| --- | --- | --- | --- | --- |
| COc1cc(-c2cnc(C3CC(F)(F)C3)[nH]2)ccc1OCc1ccc(C(F)(F)F)nc1 [Example 2] | > 88 | 25.1 (≈ 57.1 µM) |  |  |
| COc1cc(OCc2ccc(C(F)(F)F)nc2)ccc1-c1cnc(C2CC(F)(F)C2)[nH]1 [Example 4] | 86.6 (≈ 197 µM) | 0.9 (≈ 2.05 µM) | 167 to 169 °C |  |
| COc1cc(-c2cnc(C3CCCC(F)(F)C3)[nH]2)ccc1OCc1ccc(C(F)(F)F)cn1 (centres unmarked) [Example 5] | 90.1 (≈ 193 µM) | 1.1 (≈ 2.35 µM) |  |  |
| COc1cc(OCc2ncccc2C#N)ccc1-c1cnc(C2CCC(F)(F)CC2)[nH]1 [Example 7] | 84 (≈ 198 µM) | 40.2 (≈ 94.7 µM) | 69 to 89 °C |  |
| COc1cc(OCc2cccc(C#N)n2)ccc1-c1cnc(C2CCC(F)(F)CC2)[nH]1 [Example 8] | 83.6 (≈ 197 µM) | < 0.3 | 195 to 197 °C |  |
| COc1cc(-c2cnc(C3CCC(F)(F)C3)[nH]2)ccc1OCc1ccc(C(F)(F)F)cn1 (centres unmarked) [Example 10] | 89.5 (≈ 197 µM) | 17.3 (≈ 38.2 µM) |  |  |
| COc1cc(-c2cnc(C3CC(F)(F)C3)[nH]2)ccc1OCc1ccc(C(F)(F)F)cn1 [Example 11] | 80.1 (≈ 182 µM) | 5.4 (≈ 12.3 µM) |  |  |
| COc1cc(-c2nc(-c3ccc(Cl)nc3)[nH]c2C)ccc1OCc1ccc(C(F)(F)F)nc1 [Example 28] |  |  | 209 to 211 °C |  |
| COc1cc(-c2nc(-c3ccc(Cl)cn3)[nH]c2C)ccc1OCc1ccc(C(F)(F)F)nc1 [Example 29] | 3 (≈ 6.32 µM) | 0.6 (≈ 1.26 µM) | 267 to 269 °C |  |
| COc1cc(OCc2ccc(C#N)cn2)ccc1-c1c[nH]c(-c2ccc(Cl)nc2)n1 [Example 35] |  |  | 233 to 237 °C (dec.) |  |
| COc1cc(OCc2cnccn2)ccc1-c1c[nH]c(-c2ccc(Cl)nc2)n1 [Example 50] |  |  | 210 to 213 °C (dec.) |  |
| COc1cc(-c2c[nH]c(C3CCCCC3)n2)ccc1OCc1ccc(C(F)(F)F)nc1 [Example 51] | 90.2 (≈ 209 µM) | 9 (≈ 20.9 µM) |  |  |
| COc1cc(-c2c[nH]c(-c3ccc(Cl)nc3)n2)ccc1OCc1ccc(C(F)(F)F)nc1 [Example 52] |  |  | 179 to 181 °C |  |
| COc1cc(OCc2ccc(C(F)(F)F)cn2)ccc1-c1c[nH]c(-c2ccc(SC(C)(C)C)cn2)n1 [Example 59] |  |  | 159 to 160 °C |  |
| COc1ccc(-c2nc(-c3ccc(OCc4ccc(C(F)(F)F)cn4)c(OC)c3)c[nH]2)cn1 [Example 70] |  |  | 217 to 218 °C (dec.) |  |
| CCOc1ccc(-c2nc(-c3ccc(OCc4ccc(Br)cc4F)cc3OC)c[nH]2)cn1 [Example 84] |  |  | 181 to 184 °C |  |
| COc1cc(OCc2ccc(Br)cc2F)ccc1-c1c[nH]c(-c2ccccn2)n1 [Example 90] |  |  | 219 to 222 °C |  |
| COc1cc(OCc2ccc(Br)cc2F)ccc1-c1c[nH]c(-c2ccc(Cl)nc2)n1 [Example 92] |  |  | 220 to 222 °C |  |
| COc1cc(-c2c[nH]c(-c3ccc(C(F)(F)F)nc3)n2)ccc1OCc1ccc(Br)cc1F [Example 95] |  |  | 175 to 177 °C |  |
| COc1cc(-c2cnc(-c3ccc(F)nc3)[nH]2)ccc1O [Example 110, 4-[2-(6-fluoropyridin-3-yl)-1H-imidazol-5-yl]-2-methoxyphenol] | > 57 | > 57 |  |  |
| COc1cc(O[C@H](C)c2ccc(C(F)(F)F)nc2)ccc1-c1cnc(-c2ccc(F)nc2)[nH]1 [Example 149] |  |  |  | Solubility (μg/mL) 1st fluid ([1]; 1st fluid for Disintegration Test of Japanese Pharmacopoeia (pH: 1.2), 24 hours): 19.6 µg/mL (≈ 42.8 µM); Solubility (μg/mL) 2nd fluid [1, 4]: 3.9 µg/mL (≈ 8.51 µM) |
| COc1cc(OCc2cccc(C#N)n2)ccc1-c1[nH]c(C2CCC(F)(F)CC2)nc1Cl [Example 186] | 23.2 (≈ 50.6 µM) | < 0.3 |  |  |
| COc1cc(OCc2cnc(Cl)cn2)ccc1-c1nc(-c2ccc(Cl)nc2)[nH]c1Cl [Example 215] |  |  | 232 to 234 °C |  |
| COc1cc(OCc2ccc(F)cc2F)ccc1-c1[nH]c(-c2ccc(Cl)nc2)nc1Cl [Example 244] |  |  | 173 to 177 °C |  |
| COc1cc(OCc2ncc(Br)cc2F)ccc1-c1[nH]c(-c2ccc(Cl)nc2)nc1Br [Example 250] |  |  | 174 to 179 °C |  |
| COc1cc(OCc2ncc(Br)cc2F)ccc1-c1[nH]c(-c2ccc(Cl)nc2)nc1Cl [Example 251] |  |  | 189 to 191 °C |  |

Second part, led by results:

| solubility at 24 h [1, 2] [µg/mL] | solubility at 24 h [1, 3] [µg/mL] | melting point | Structure (SMILES) | other results |
| --- | --- | --- | --- | --- |
| 87.7 (≈ 200 µM) | 1.8 (≈ 4.1 µM) |  | COc1cc(OCc2ccc(C(F)(F)F)cn2)ccc1-c1cnc(C2CC(F)(F)C2)[nH]1 [Example 9] |  |
| 8.7 (≈ 19.6 µM) | 1.3 (≈ 2.93 µM) | 176 to 178 °C | COc1cc(OCc2ccc(C(F)(F)F)nc2)ccc1-c1c[nH]c(-c2ccc(F)cn2)n1 [Example 26] |  |
|  |  | 218 to 220 °C | COc1cc(OCc2ccc(C(F)(F)F)nc2)ccc1-c1c[nH]c(-c2ccc(Cl)nc2)n1 [Example 54] |  |
|  |  | 209 to 211 °C | COc1cc(OCc2ccc(C(F)(F)F)cn2)ccc1-c1c[nH]c(-c2ccc(C(F)(F)F)nc2)n1 [Example 96] |  |
|  |  | 183 to 185 °C | COc1cc(OCc2ccc(Br)cc2F)ccc1-c1c[nH]c(-c2ccc(C(F)(F)F)nc2)n1 [Example 99] |  |
|  |  | 213 to 218 °C | COc1cc(OCc2ccc(F)cc2F)ccc1-c1cnc(-c2ccc(Cl)nc2)[nH]1 [Example 101] |  |
| 21.1 (≈ 47.5 µM) | 0.5 (≈ 1.13 µM) |  | COc1cc(OCc2cccc(C(F)(F)F)n2)ccc1-c1cnc(-c2ccc(F)nc2)[nH]1 [Example 113] |  |
| 23.1 (≈ 52 µM) | 0.5 (≈ 1.13 µM) |  | COc1cc(-c2c[nH]c(-c3ccc(F)nc3)n2)ccc1OCc1ccc(C(F)(F)F)cn1 [Example 125] |  |
| 17.1 (≈ 37.3 µM) | < 0.3 |  | COc1cc(OC(C)c2cccc(C(F)(F)F)n2)ccc1-c1cnc(-c2ccc(F)nc2)[nH]1 (centres unmarked) [Example 127] |  |
| 13.6 (≈ 28.5 µM) | < 0.3 |  | COc1cc(OC(C)c2ncc(C(F)(F)F)cc2F)ccc1-c1cnc(-c2ccc(F)nc2)[nH]1 (centres unmarked) [Example 129] |  |
|  |  | 72 to 105 °C | COc1cc(OC(C)c2ccc(C(F)(F)F)nc2)ccc1-c1cnc(-c2ccc(F)nc2)[nH]1 (centres unmarked) [Example 130] |  |
|  |  | 178 to 180 °C | COc1cc(OCc2ccc(Cl)cc2F)ccc1-c1cnc(-c2ccc(F)nc2)[nH]1 [Example 143] |  |
|  |  | 177 to 180 °C | COc1cc(OCc2ccc(Br)cc2F)ccc1-c1cnc(-c2ccc(F)nc2)[nH]1 [Example 144] |  |
| < 0.3 | 4 (≈ 8.74 µM) |  | COc1cc(O[C@@H](C)c2ccc(C(F)(F)F)cc2)ccc1-c1cnc(-c2ccc(F)nc2)[nH]1 [Example 145] |  |
| 9.9 (≈ 21.6 µM) |  |  | COc1cc(O[C@H](C)c2ccc(C(F)(F)F)nc2)ccc1-c1cnc(-c2ccc(F)nc2)[nH]1 [Example 146] | Solubility (μg/mL) 2nd fluid [1, 4]: 1.2 µg/mL (≈ 2.62 µM) |
| 12.4 (≈ 27 µM) | 3.6 (≈ 7.85 µM) |  | COc1cc(O[C@@H](C)c2ccc(C(F)(F)F)nc2)ccc1-c1cnc(-c2ccc(F)nc2)[nH]1 [Example 147] |  |
| < 0.3 | 5.3 (≈ 11.6 µM) |  | COc1cc(O[C@H](C)c2ccc(C(F)(F)F)cc2)ccc1-c1cnc(-c2ccc(F)nc2)[nH]1 [Example 148] |  |

| solubility at 24 h [1, 2] [µg/mL] | solubility at 24 h [1, 3] [µg/mL] | melting point | Structure (SMILES) | other results |
| --- | --- | --- | --- | --- |
|  |  | 185 to 187 °C | COc1cc(OCc2cc(C(F)(F)F)ccn2)ccc1-c1[nH]c(-c2ccc(F)nc2)nc1Cl [Example 173] |  |
|  |  | 176 to 178 °C | COc1cc(OCc2cc(C(F)(F)F)ccn2)ccc1-c1[nH]c(-c2ccc(Cl)nc2)nc1Cl [Example 174] |  |
|  |  | 202 to 204 °C | COc1cc(-c2[nH]c(-c3ccc(F)nc3)nc2Cl)ccc1OCc1ccc(C(F)(F)F)nc1 [Example 177] |  |
|  |  | 231 to 233 °C (dec.) | COc1cc(OCc2cnc(Cl)cn2)ccc1-c1nc(-c2ccc(F)nc2)[nH]c1Cl [Example 217] |  |
|  |  | 222 to 224 °C (dec.) | COc1cc(OCc2ccc(C(F)(F)F)cn2)ccc1-c1nc(-c2ccc(F)cn2)[nH]c1Cl [Example 231] |  |
|  |  | 197 to 199 °C (dec.) | COc1cc(OCc2ccc(C(F)(F)F)cn2)ccc1-c1nc(-c2ccc(Cl)cn2)[nH]c1Cl [Example 232] |  |
|  |  | 195 to 199 °C | COc1cc(OCc2cccnc2C(F)(F)F)ccc1-c1[nH]c(-c2ccc(Cl)nc2)nc1Cl [Example 243] |  |
|  |  | 133 to 153 °C | COc1cc(OCc2cnccc2C(F)(F)F)ccc1-c1[nH]c(-c2ccc(F)nc2)nc1Cl [Example 257] |  |
|  |  | 179 to 181 °C | COc1cc(OCc2cc(C(F)(F)F)ccn2)ccc1-c1[nH]c(-c2ccc(F)nc2)nc1Br [Example 269] |  |
|  |  | 236 to 238 °C | COc1cc(OCc2ccnc(C(F)(F)F)c2)ccc1-c1[nH]c(-c2ccc(F)nc2)nc1Cl [Example 272] |  |
|  |  | 190 to 193 °C | COc1cc(OCc2cccc(C(F)(F)F)n2)ccc1-c1[nH]c(-c2ccc(Cl)nc2)nc1Cl [Example 282] |  |
|  |  | 172 to 175 °C | COc1cc(OCc2ncc(Cl)cc2F)ccc1-c1[nH]c(-c2ccc(F)nc2)nc1Cl [Example 283] |  |
|  |  | 183 to 185 °C | COc1cc(OCc2ccc(Br)cc2F)ccc1-c1[nH]c(-c2ccc(F)nc2)nc1Cl [Example 284] |  |
|  |  | 163 to 166 °C | COc1cc(OCc2ccc(Cl)cc2F)ccc1-c1[nH]c(-c2ccc(F)nc2)nc1Cl [Example 286] |  |
|  |  | 149 to 151 °C | COc1cc(OCc2ccc(C(F)(F)F)nc2)ccc1-c1c(Cl)nc(-c2ccc(Cl)nc2)n1C [Example 307] |  |
|  |  | 194 to 196 °C | COc1cc(OCc2ccc(C(F)(F)F)nc2)ccc1-c1[nH]c(-c2ccc(F)nc2)nc1F [Example 320] |  |
